Results reported in US11406614B2, “Composition comprising EPA and DHA for an enhanced efficacy of anticancer agents” (Fresenius Kabi Deutschland GmbH, priority 2016, dated 2022).

Tested on: human colon adenocarcinoma cell line LS174T
Assay: Subcutaneous LS174T xenograft model, tumor growth inhibition
Set-up: species or system BALB/c nude mice
Settings: mouse, in vivo
Method: Example 2 was repeated with the anticancer agent fluorouracil (5-FU) and utilizing a different xen-ograft model involving the human colon adenocarcinoma cell line LS174T.
The suboptimal dose of 5-FU was determined with 75 mg/kg. The anticancer agent was intraperitoneally administered at the suboptimal dose once a week (days 11, 18 and 25 after inoculation). The emulsions were administered intravenously five times a week (Mo-Fr) at a dose of 2 ml/kg.
The results were statistically analyzed.

## O=c1[nH]cc(F)c(=O)[nH]1 [Composition 5-FU, fluorouracil]
  Suboptimal dose: 75 mg/kg
